For experiment [1], the target named is MDM2 (Homo sapiens, UniProt Q00987). In words: Competitive fluorescence polarization assay for MDM2. The experiment is classed as binding. To be noted: competitive FP assay, MDM2. For orientation: Fluorescence polarisation rises when a labelled molecule tumbles more slowly, as on binding a larger partner.
Experiment [2] addresses T1, MDMX (Homo sapiens, UniProt O15151).
T1 sequence (O15151 1-125): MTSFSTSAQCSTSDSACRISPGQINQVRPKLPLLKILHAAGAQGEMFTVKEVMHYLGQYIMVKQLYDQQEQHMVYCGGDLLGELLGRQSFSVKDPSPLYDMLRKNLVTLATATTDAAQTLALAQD
The experiment is described as follows: Competitive fluorescence polarization assay for MDMX. The experiment is classed as binding. The settings on record: competitive FP assay.

Read-outs that look alike come from different tables or passages of the source. Where a SMILES comes first, the peptide text is derived from it. Bridges are numbered along the chain shown (N, C = ends). [ ]: non-standard residue; d: D form. R8 = C=CCCCCCC[C@@](C)(N)C(=O)O; S5 = C=CCCC[C@](C)(N)C(=O)O; Nle = CCCC[C@H](N)C(=O)O; Sar = CNCC(=O)O A value given as a limit tells only on which side of the number the result lay.

Chain of MDM2 (Q00987 1-125): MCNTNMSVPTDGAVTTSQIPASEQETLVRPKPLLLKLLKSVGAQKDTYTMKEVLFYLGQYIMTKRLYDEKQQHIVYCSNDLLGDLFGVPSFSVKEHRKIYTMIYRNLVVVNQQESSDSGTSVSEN

For the compound `CC(=O)N[C@@H](CC(C)C)C(=O)N[C@H](C(=O)N[C@@H](Cc1ccccc1)C(=O)N[C@]1(C)CCCCCCC=CCCC[C@@](C)(C(=O)N[C@@H](C)C(=O)N[C@@H](C)C(=O)N[C@@H](C)C(=O)N[C@@H](C)C(=O)N(C)CC(=O)N[C@H](C)C(N)=O)NC(=O)[C@H](CC(C)C)NC(=O)[C@H](CCC(N)=O)NC(=O)[C@H](C)NC(=O)[C@H](Cc2c[nH]c3ccccc23)NC(=O)[C@H](Cc2ccc(O)cc2)NC(=O)[C@H](CCC(=O)O)NC1=O)[C@@H](C)O` [compound 577] (Ac-LTF[R8]EYWAQL[S5]AAAA[Sar][dA]-NH2; staple 4-11), the Ki (as a rule, a measure of affinity in units of concentration, obtained from inhibition or displacement) in experiment [1] (read-out: Ki (MDM2)) was < 10 nM; in experiment [2] (read-out: Ki (MDMX)), 10 to 100 nM.

Turning to `CC(=O)N[C@@H](CC(C)C)C(=O)N[C@H](C(=O)N[C@@H](Cc1ccccc1)C(=O)N[C@]1(C)CCCCCCC=CCCC[C@@](C)(C(=O)N[C@@H](C)C(=O)N(C)CC(=O)N[C@@H](C)C(=O)N[C@@H](C)C(=O)N[C@@H](C)C(=O)N[C@H](C)C(N)=O)NC(=O)[C@H](CC(C)C)NC(=O)[C@H](CCC(N)=O)NC(=O)[C@H](C)NC(=O)[C@H](Cc2c[nH]c3ccccc23)NC(=O)[C@H](Cc2ccc(O)cc2)NC(=O)[C@H](CCC(=O)O)NC1=O)[C@@H](C)O` [compound 574] (Ac-LTF[R8]EYWAQL[S5]A[Sar]AAA[dA]-NH2; staple 4-11), the results for the Ki in experiment [1] (read-out: Ki (MDM2)) and in experiment [2] (read-out: Ki (MDMX)) were < 10 nM and 10 to 100 nM, respectively.

Regarding `CC(=O)N[C@@H](CC(C)C)C(=O)N[C@H](C(=O)N[C@@H](Cc1ccccc1)C(=O)N[C@]1(C)CCCCCCC=CCCC[C@@](C)(C(=O)N[C@@H](CO)C(=O)N[C@@H](C)C(=O)N[C@@H](C)C(N)=O)NC(=O)[C@H](CC(C)C)NC(=O)[C@H](CCC(N)=O)NC(=O)[C@H](C)NC(=O)[C@H](Cc2c[nH]c3ccccc23)NC(=O)[C@H](CO)NC(=O)[C@H](C)NC1=O)[C@@H](C)O` (single isomer, unassigned) [compound 167], the figures for the IC50 in experiment [1] (read-out: IC50 (MDM2)) and in experiment [2] (read-out: IC50 (MDMX)) were 10 to 100 nM and 100 to 1000 nM, respectively. In addition, the Ki is < 10 nM in experiment [1] (read-out: Ki (MDM2)) and 100 to 1000 nM in experiment [2] (read-out: Ki (MDMX)).

On to `CCCC[C@H](NC(=O)[C@H](C)NC(=O)[C@H](C)NC(=O)[C@]1(C)CCCC=CCCCCCC[C@@](C)(NC(=O)[C@H](Cc2ccccc2)NC(=O)[C@@H](NC(=O)[C@H](CC(C)C)NC(=O)[C@H](C)NC(C)=O)[C@@H](C)O)C(=O)N[C@@H](C)C(=O)N[C@@H](Cc2ccc(O)cc2)C(=O)N[C@@H](Cc2c[nH]c3ccccc23)C(=O)N[C@@H](C)C(=O)N[C@@H](CCC(N)=O)C(=O)N[C@@H](CC(C)C)C(=O)N1)C(=O)N[C@@H](C)C(=O)N[C@@H](C)C(N)=O` [compound 321], for which the results for the IC50 in experiment [1] (read-out: IC50 (MDM2)) and in experiment [2] (read-out: IC50 (MDMX)) were 10 to 100 nM and 100 to 1000 nM, respectively. Besides, the inhibitory constant (Ki) in experiment [1] (read-out: Ki (MDM2)) was < 10 nM; in experiment [2] (read-out: Ki (MDMX)) it was 10 to 100 nM.

As for `CCCC[C@H](NC(=O)[C@H](C)NC(=O)[C@H](C)NC(=O)[C@]1(C)CCCC=CCCCCCC[C@@](C)(NC(=O)[C@H](Cc2ccccc2)NC(=O)[C@@H](NC(=O)[C@H](CC(C)C)NC(=O)[C@H](C)NC(=O)[C@H](C)NC(=O)[C@H](C)NC(C)=O)[C@@H](C)O)C(=O)N[C@@H](CCC(=O)O)C(=O)N[C@@H](Cc2ccc(O)cc2)C(=O)N[C@@H](Cc2c[nH]c3ccccc23)C(=O)N[C@@H](C)C(=O)N[C@@H](CCC(N)=O)C(=O)N[C@@H](CC(C)C)C(=O)N1)C(=O)N[C@@H](C)C(N)=O` [compound 376] (Ac-AAALTF[R8]EYWAQL[S5]AA[Nle]A-NH2; staple 7-14), the concentration for half-maximal inhibition (IC50) in experiment [1] (read-out: IC50 (MDM2)) and in experiment [2] (read-out: IC50 (MDMX)) was 10 to 100 nM each time. The inhibition constant Ki in experiment [1] (read-out: Ki (MDM2)) and in experiment [2] (read-out: Ki (MDMX)) was < 10 nM in each case.

As to `CCCC[C@H](NC(=O)[C@H](C)NC(=O)[C@H](C)NC(=O)[C@]1(C)CCCC=CCCCCCC[C@@](C)(NC(=O)[C@H](Cc2ccccc2)NC(=O)[C@H](C)NC(=O)[C@H](C)NC(C)=O)C(=O)N[C@@H](CCC(=O)O)C(=O)N[C@@H](Cc2ccc(O)cc2)C(=O)N[C@@H](Cc2c[nH]c3ccccc23)C(=O)N[C@@H](C)C(=O)N[C@@H](CCC(N)=O)C(=O)N[C@@H](CC(C)C)C(=O)N1)C(=O)N[C@@H](C)C(N)=O` [compound 371] (Ac-AAF[R8]EYWAQL[S5]AA[Nle]A-NH2; staple 4-11), the half-maximal inhibitory concentration (IC50) in experiment [1] (read-out: IC50 (MDM2)) and in experiment [2] (read-out: IC50 (MDMX)) was 100 to 1000 nM throughout. In addition, the Ki in experiment [1] (read-out: Ki (MDM2)) and in experiment [2] (read-out: Ki (MDMX)) was 10 to 100 nM throughout.

As to `CC(=O)N[C@@H](CC(C)C)C(=O)N[C@H](C(=O)N[C@@H](Cc1ccccc1)C(=O)N[C@]1(C)CCCCCCC=CCCC[C@@](C)(C(=O)N[C@@H](CO)C(=O)N[C@@H](C)C(=O)N[C@@H](C)C(N)=O)NC(=O)[C@H](CC(C)C)NC(=O)[C@H](C)NC(=O)[C@H](C)NC(=O)[C@H](Cc2c[nH]c3ccccc23)NC(=O)[C@H](CCC(=O)O)NC(=O)[C@H](C)NC1=O)[C@@H](C)O` (single isomer, unassigned) [compound 199], the results for the half-maximal inhibitory concentration (IC50) in experiment [1] (IC50 (MDM2)) and in experiment [2] (IC50 (MDMX)) were 10 to 100 nM and 100 to 1000 nM, respectively. Also, the values for the Ki in experiment [1] (Ki (MDM2)) and in experiment [2] (Ki (MDMX)) were < 10 nM and 100 to 1000 nM, respectively.
